From ChEMBL document CHEMBL1154172, “Synthesis and anti-inflammatory evaluation of novel angularly or linearly fused coumarins” (Eur J Med Chem, 2009)
Activity calls are given as the source filed them. The rule behind the calls is not given here.

What was measured:
[1] = system: Radical scavenging activity; test: Antioxidant activity assessed as DPPH free radical scavenging activity at 0.05 mM after 60 mins; assay type: functional
[2] = system: Radical scavenging activity; test: Antioxidant activity assessed as DPPH free radical scavenging activity at 0.1 mM after 20 mins; assay type: functional
[3] = system: Radical scavenging activity; test: Antioxidant activity assessed as DPPH free radical scavenging activity at 0.1 mM after 60 mins; assay type: functional
[4] = system: Radical scavenging activity; test: Antioxidant activity assessed as DPPH free radical scavenging activity at 0.05 mM after 20 mins; assay type: functional
[5] = Toxicity in Fisher 344 rat assessed as mortality at 0.01 mmol/kg, ip administered daily once for 4 days measured after 24 hrs final post dose; assay type: organism-based; settings: in vivo, read-out: Activity
[6] = system: Rattus norvegicus; test: Toxicity in Fisher 344 rat assessed as body weight change per 100 g of animal at 0.01 mmol/kg, ip administered daily once for 4 days measured after 24 hrs final post dose; assay type: organism-based; settings: in vivo
[7] = system: Rattus norvegicus; test: Toxicity in Fisher 344 rat assessed as melena defecation at 0.01 mmol/kg, ip administered daily once for 4 days measured after 24 hrs final post dose; assay type: organism-based; settings: in vivo
[8] = system: Rattus norvegicus; test: Antiinflammatory activity in Fisher 344 rat assessed as inhibition of carrageenan-induced paw edema at 0.01 mmol/kg, ip after 3.5 hrs; assay type: functional; settings: Fisher 344, ip
[9] = system: Rattus norvegicus; test: Toxicity in Fisher 344 rat assessed as gastrointestinal ulcer at 0.01 mmol/kg, ip administered daily once for 4 days measured after 24 hrs final post dose; assay type: organism-based; settings: in vivo
[10] = Antioxidant activity against Fe3+/ascorbic acid system generated hydroxyl radicals assessed as inhibition of formaldehyde production at 0.1 mM; assay type: functional; parameters: scale not given: the % may be the effect or the level left
[11] = system: Glycine max; test: Inhibition of soybean lipoxygenase assessed as conversion of sodium linoleate to 13-hydroperoxylinoleic acid at 0.1 mM
[12] = Antioxidant activity assessed as superoxide radical scavenging activity at 0.1 mM after 2 mins by nitroblue tetrazolium method; assay type: functional
[13] = Inhibition of soybean lipoxygenase assessed as conversion of sodium linoleate to 13-hydroperoxylinoleic acid; parameters: species or system Glycine max

inhibition [11]	IC50 [13]	Compound	Activity [1]	Activity [2]	Activity [3]	Activity [4]	mortality at 24 h [5]	Activity [6]	Activity [7]	inhibition in vivo at 10 µmol/kg [8]	Activity [9]	Activity [10]	Activity [12]
–	–	CC(Cc1ccc(O)c(O)c1)C(C)Cc1ccc(O)c(O)c1 (centres undefined)	81%	65%	83%	63%	–	–	–	–	–	–	–
–	–	COc1ccc2c(c1)c(CC(=O)O)c(C)n2C(=O)c1ccc(Cl)cc1 [INDOMETHACIN]	–	–	–	–	50%	-9 g	Non-toxic	47%	78%	–	–
0%	–	COC(=O)c1cc(=O)oc2cc3c(cc12)OCO3	18%	9%	21%	12%	–	–	–	45.5%	–	78%	–
4%	–	O=c1ccc2ccc3c(c2o1)CCCC3	15%	inactive	inactive	25%	–	–	–	54%	–	inactive	16%
–	600 µM	O=C(O)/C=C/c1ccc(O)c(O)c1 [CAFFEIC ACID]	–	–	–	–	–	–	–	–	–	–	46%
78%	–	COC(=O)c1cc(=O)oc2cc3c(cc12)CCCC3	21%	12%	25%	12%	–	–	–	43.4%	–	74%	100%
10%	–	COC(=O)c1cc(=O)oc2cc3c(cc12)CCC3	22%	14%	27%	19%	–	–	–	–	–	64%	–
–	100 µM	COC(=O)c1cc(=O)oc2c3c(ccc12)CCCC3	31%	inactive	inactive	27%	–	–	–	62%	–	inactive	inactive
31%	–	COC(=O)c1cc(=O)oc2ccc3c(c12)CCCC3	17%	18%	20%	14%	–	–	–	34%	–	53%	inactive
–	–	Cc1c(C)c2c(c(C)c1O)CCC(C)(C(=O)O)O2 (centres undefined)	–	–	–	–	–	–	–	–	–	88%	–

Compound	inhibition [11]	IC50 [13]	Activity [1]	Activity [2]	Activity [3]	Activity [4]	mortality at 24 h [5]	Activity [6]	Activity [7]	inhibition in vivo at 10 µmol/kg [8]	Activity [9]	Activity [10]	Activity [12]
COC(=O)c1cc(=O)oc2c3c(ccc12)OC(C)(C)C3	4%	–	12%	inactive	inactive	11%	0%	2.5 g	Toxic	65%	0%	72%	inactive
